{"source": "patent US12377071B2", "about": "“Methods of treating conditions related to the S1P1 receptor” (Arena Pharmaceuticals, Inc., priority 2015, dated 2025)", "format_in_all_cases": "in vivo, human", "key": {"[1]": {"tested_on": "lymphocytes", "test": "Multiple ascending dose study: lymphocyte counts, safety population", "settings": "for Lymphocytes, On Treatment Mean / Lymphocytes, Percent Change from Baseline, Mean / Lymphocytes, Percent Change from Baseline, Median / Lymphocytes, Percent Change from Baseline, Min, Max: day 21", "description": "(§1) A randomized, double-blind, placebo-controlled, sequential, ascending, multiple dose study to assess the safety, tolerability, and pharmacokinetics of the L-arginine salt of Compound 1 administered to healthy adult subjects was conducted. This study was designed to evaluate the safety, tolerability, pharmacokinetics, and pharmacodynamics of the L-arginine salt of Compound 1.\n(§2) Cohort 1 was dosed with 0.7 mg (by administering two 0.35 mg formulations) for 21 days. Cohort 2 was dosed with 1.35 mg (by administering both a 0.35 mg formulation and a 1 mg formulation) for 21 days. Cohort 3 was dosed with 2.0 mg for 21 days. Cohort 4 was dosed with 0.35 mg for 7 days and then with 2.0 mg for 14 days. Cohort 5 was dosed with 0.5 for 7 days and then with 3.0 mg (by administering both a 1 mg formulation and a 2 mg formulation) for 14 days."}, "[2]": {"tested_on": "healthy adult subjects", "test": "Multiple ascending dose study: diastolic BP, safety population", "settings": "Day 1 to Day 28", "description": "as §1, §2\n(§3) The following safety assessments were conducted: physical examinations with ophthalmoscopy, clinical laboratory tests (serum chemistry, coagulation, and urinalysis), vital signs, continuous telemetry (12 lead ECG), safety ECGs, pulmonary function testing (PFT), serum protein electrophoresis (SPEP) and serum immunoelectrophoresis (IEP), and adverse event reporting."}, "[3]": {"tested_on": "healthy adult subjects", "test": "Multiple ascending dose study: heart rate, safety population", "settings": "Day 1 to Day 28", "description": "as §1, §2, §3"}, "[4]": {"settings": "0.5 mg for 7 days then 3.0 mg for 14 days"}, "[5]": {"settings": "0.35 mg for 7 days then 2.0 mg for 14 days"}}, "note": "Counter-ions that a name gives are not always drawn.", "data": [{"smiles": "O=C(O)C[C@H]1CCc2c1[nH]c1ccc(OCc3ccc(C4CCCC4)c(C(F)(F)F)c3)cc21", "note": "[L-arginine salt of Compound 1]", "values": [{"measurement": "Lymphocytes, On Treatment Mean", "setting": "[1]; [4]", "result": "0.62 10^3/μl"}, {"measurement": "Lymphocytes, Percent Change from Baseline, Mean", "setting": "[1]; [4]", "result": "−66.16", "unit": "%"}, {"measurement": "Lymphocytes, Percent Change from Baseline, Median", "setting": "[1]; [4]", "result": "−65.02", "unit": "%"}, {"measurement": "Lymphocytes, Percent Change from Baseline, Min, Max", "setting": "[1]; [4]", "result": "−85.19 to −53.85", "unit": "%"}, {"measurement": "Lymphocytes, On Treatment Mean", "setting": "[1]; 0.7 mg for 21 days", "result": "1.06 10^3/μl"}, {"measurement": "Lymphocytes, Percent Change from Baseline, Mean", "setting": "[1]; 0.7 mg for 21 days", "result": "−41.03", "unit": "%"}, {"measurement": "Lymphocytes, Percent Change from Baseline, Median", "setting": "[1]; 0.7 mg for 21 days", "result": "−40.37", "unit": "%"}, {"measurement": "Lymphocytes, Percent Change from Baseline, Min, Max", "setting": "[1]; 0.7 mg for 21 days", "result": "−55.56 to −23.08", "unit": "%"}, {"measurement": "Lymphocytes, On Treatment Mean", "setting": "[1]; 1.35 mg for 21 days", "result": "0.89 10^3/μl"}, {"measurement": "Lymphocytes, Percent Change from Baseline, Mean", "setting": "[1]; 1.35 mg for 21 days", "result": "−53.43", "unit": "%"}, {"measurement": "Lymphocytes, Percent Change from Baseline, Median", "setting": "[1]; 1.35 mg for 21 days", "result": "−51.85", "unit": "%"}, {"measurement": "Lymphocytes, Percent Change from Baseline, Min, Max", "setting": "[1]; 1.35 mg for 21 days", "result": "−68.75 to −30.77", "unit": "%"}, {"measurement": "Lymphocytes, On Treatment Mean", "setting": "[1]; 2.0 mg for 21 days", "result": "0.62 10^3/μl"}, {"measurement": "Lymphocytes, Percent Change from Baseline, Mean", "setting": "[1]; 2.0 mg for 21 days", "result": "−68.81", "unit": "%"}, {"measurement": "Lymphocytes, Percent Change from Baseline, Median", "setting": "[1]; 2.0 mg for 21 days", "result": "−69.44", "unit": "%"}, {"measurement": "Lymphocytes, Percent Change from Baseline, Min, Max", "setting": "[1]; 2.0 mg for 21 days", "result": "−80.00 to −55.56", "unit": "%"}, {"measurement": "Lymphocyte lowering, dose dependence", "setting": "[1]; multiple dose, 0.7 to 3.0 mg", "result": "dose-dependent effect on lymphocyte lowering with maximal effect at 2 mg dose"}, {"measurement": "Minimum Value for Post-dose Diastolic BP, Change from Baseline, Mean", "setting": "[2]; [5]", "result": "−7.90", "unit": "mmHg"}, {"measurement": "Minimum Value for Post-dose Diastolic BP, Change from Baseline, Median", "setting": "[2]; [5]", "result": "−6.00", "unit": "mmHg"}, {"measurement": "Minimum Value for Post-dose Diastolic BP, Change from Baseline, Min, Max", "setting": "[2]; [5]", "result": "−19.00 to −1.00", "unit": "mmHg"}, {"measurement": "Minimum Value for Post-dose Diastolic BP, On Treatment Mean", "setting": "[2]; [5]", "result": 50.80, "unit": "mmHg"}, {"measurement": "Minimum Value for Post-dose Diastolic BP, Change from Baseline, Mean", "setting": "[2]; [4]", "result": "−6.30", "unit": "mmHg"}, {"measurement": "Minimum Value for Post-dose Diastolic BP, Change from Baseline, Median", "setting": "[2]; [4]", "result": "−7.00", "unit": "mmHg"}, {"measurement": "Minimum Value for Post-dose Diastolic BP, Change from Baseline, Min, Max", "setting": "[2]; [4]", "result": "−13.00 to 3.00", "unit": "mmHg"}, {"measurement": "Minimum Value for Post-dose Diastolic BP, On Treatment Mean", "setting": "[2]; [4]", "result": 50.20, "unit": "mmHg"}, {"measurement": "Minimum Value for Post-dose Diastolic BP, Change from Baseline, Mean", "setting": "[2]; 0.7 mg for 21 days", "result": "−6.10", "unit": "mmHg"}, {"measurement": "Minimum Value for Post-dose Diastolic BP, Change from Baseline, Median", "setting": "[2]; 0.7 mg for 21 days", "result": "−6.00", "unit": "mmHg"}, {"measurement": "Minimum Value for Post-dose Diastolic BP, Change from Baseline, Min, Max", "setting": "[2]; 0.7 mg for 21 days", "result": "−16.00 to 2.00", "unit": "mmHg"}, {"measurement": "Minimum Value for Post-dose Diastolic BP, On Treatment Mean", "setting": "[2]; 0.7 mg for 21 days", "result": 56.00, "unit": "mmHg"}, {"measurement": "Minimum Value for Post-dose Diastolic BP, Change from Baseline, Mean", "setting": "[2]; 1.35 mg for 21 days", "result": "−5.20", "unit": "mmHg"}, {"measurement": "Minimum Value for Post-dose Diastolic BP, Change from Baseline, Median", "setting": "[2]; 1.35 mg for 21 days", "result": "−7.50", "unit": "mmHg"}, {"measurement": "Minimum Value for Post-dose Diastolic BP, Change from Baseline, Min, Max", "setting": "[2]; 1.35 mg for 21 days", "result": "−11.00 to 6.00", "unit": "mmHg"}, {"measurement": "Minimum Value for Post-dose Diastolic BP, On Treatment Mean", "setting": "[2]; 1.35 mg for 21 days", "result": 53.70, "unit": "mmHg"}, {"measurement": "Minimum Value for Post-dose Diastolic BP, Change from Baseline, Mean", "setting": "[2]; 2.0 mg for 21 days", "result": "−11.20", "unit": "mmHg"}, {"measurement": "Minimum Value for Post-dose Diastolic BP, Change from Baseline, Median", "setting": "[2]; 2.0 mg for 21 days", "result": "−9.00", "unit": "mmHg"}, {"measurement": "Minimum Value for Post-dose Diastolic BP, Change from Baseline, Min, Max", "setting": "[2]; 2.0 mg for 21 days", "result": "−21.00 to −4.00", "unit": "mmHg"}, {"measurement": "Minimum Value for Post-dose Diastolic BP, On Treatment Mean", "setting": "[2]; 2.0 mg for 21 days", "result": 45.30, "unit": "mmHg"}, {"measurement": "Minimum Value for Post-dose Heart Rate, Change from Baseline, Mean", "setting": "[3]; [5]", "result": "−10.60", "unit": "BPM"}, {"measurement": "Minimum Value for Post-dose Heart Rate, Change from Baseline, Median", "setting": "[3]; [5]", "result": "−7.00", "unit": "BPM"}, {"measurement": "Minimum Value for Post-dose Heart Rate, Change from Baseline, Min, Max", "setting": "[3]; [5]", "result": "−35.00 to 3.00", "unit": "BPM"}, {"measurement": "Minimum Value for Post-dose Heart Rate, On Treatment Mean", "setting": "[3]; [5]", "result": 52.00, "unit": "BPM"}, {"measurement": "Minimum Value for Post-dose Heart Rate, Change from Baseline, Mean", "setting": "[3]; [4]", "result": "−7.30", "unit": "BPM"}, {"measurement": "Minimum Value for Post-dose Heart Rate, Change from Baseline, Median", "setting": "[3]; [4]", "result": "−6.50", "unit": "BPM"}, {"measurement": "Minimum Value for Post-dose Heart Rate, Change from Baseline, Min, Max", "setting": "[3]; [4]", "result": "−14.00 to −2.00", "unit": "BPM"}, {"measurement": "Minimum Value for Post-dose Heart Rate, On Treatment Mean", "setting": "[3]; [4]", "result": 53.80, "unit": "BPM"}, {"measurement": "Minimum Value for Post-dose Heart Rate, Change from Baseline, Mean", "setting": "[3]; 0.7 mg for 21 days", "result": "−5.50", "unit": "BPM"}, {"measurement": "Minimum Value for Post-dose Heart Rate, Change from Baseline, Median", "setting": "[3]; 0.7 mg for 21 days", "result": "−5.00", "unit": "BPM"}, {"measurement": "Minimum Value for Post-dose Heart Rate, Change from Baseline, Min, Max", "setting": "[3]; 0.7 mg for 21 days", "result": "−12.00 to −1.00", "unit": "BPM"}, {"measurement": "Minimum Value for Post-dose Heart Rate, On Treatment Mean", "setting": "[3]; 0.7 mg for 21 days", "result": 54.20, "unit": "BPM"}, {"measurement": "Minimum Value for Post-dose Heart Rate, Change from Baseline, Mean", "setting": "[3]; 1.35 mg for 21 days", "result": "−6.20", "unit": "BPM"}, {"measurement": "Minimum Value for Post-dose Heart Rate, Change from Baseline, Median", "setting": "[3]; 1.35 mg for 21 days", "result": "−5.00", "unit": "BPM"}, {"measurement": "Minimum Value for Post-dose Heart Rate, Change from Baseline, Min, Max", "setting": "[3]; 1.35 mg for 21 days", "result": "−18.00 to 3.00", "unit": "BPM"}, {"measurement": "Minimum Value for Post-dose Heart Rate, On Treatment Mean", "setting": "[3]; 1.35 mg for 21 days", "result": 54.40, "unit": "BPM"}, {"measurement": "Minimum Value for Post-dose Heart Rate, Change from Baseline, Mean", "setting": "[3]; 2.0 mg for 21 days", "result": "−8.30", "unit": "BPM"}, {"measurement": "Minimum Value for Post-dose Heart Rate, Change from Baseline, Median", "setting": "[3]; 2.0 mg for 21 days", "result": "−7.50", "unit": "BPM"}, {"measurement": "Minimum Value for Post-dose Heart Rate, Change from Baseline, Min, Max", "setting": "[3]; 2.0 mg for 21 days", "result": "−16.00 to −3.00", "unit": "BPM"}, {"measurement": "Minimum Value for Post-dose Heart Rate, On Treatment Mean", "setting": "[3]; 2.0 mg for 21 days", "result": 51.00, "unit": "BPM"}]}]}
